Data reported in patent US9169290B2, “Peptides and their use” (priority 2007, dated 2015).
≈ marks a conversion by molar mass, not a printed value. Where two headings read alike, the source gives them in different places. Ends that are not written are not given here. Peptide text beside a SMILES is read from it.

Tests used:
C. albicans = type: cell-based, Candida albicans
Method: (§1) Broth Dilution Antifungal Susceptibility Testing
(§2) The sensitivity of relevant fungal strains to the peptides was determined using Clinical Laboratory Standard Institute (CLSI; formerly NCCLS) Approved Standards.

Malasezzia furfur = type: cell-based
Method: as §1, §2

Trichophyton rubrum = type: cell-based
Method: as §1, §2

C. parapsilosis = type: cell-based, Candida parapsilosis
Method: as §1
The sensitivity of relevant fungal strains to the peptides was determined using Clinical Laboratory Standard Institute (CLSI; formerly NCCLS) Approved Standards. Fungal susceptibility was tested using “Reference Method for Broth Dilution Antifungal Susceptibility Testing of Filamentous Fungi; […];

C. krusei = type: cell-based, Candida krusei
Method: as §1, §2

C. tropicalis = assay: Broth dilution antifungal susceptibility testing of yeasts (CLSI M27-A), MIC; type: cell-based, Candida tropicalis; settings: C. tropicalis strain ATCC750
Method: as §1
The sensitivity of relevant fungal strains to the peptides was determined using Clinical Laboratory Standard Institute (CLSI; formerly NCCLS) Approved Standards. Fungal susceptibility was tested using “Reference Method for Broth Dilution Antifungal Susceptibility Testing of Filamentous Fungi; Approved Standard M38-P”, and yeast susceptibility was tested using “Reference Method for Broth Dilution Antifungal Susceptibility Testing of Yeasts; Approved Standard—Second Edition M27-A”.

[1] = Malasezzia furfur strain DSM6170
[2] = C. parapsilosis strain ATCC22019
[3] = Candida spp. Type Strains MIC Data table, strain NCPF3953

Molecule: KKKKKEGKKQEKMLD [NP333]
- MIC, Candida albicans NCTC3179 (C. albicans): >2000 µM

Molecule: KVRQGTLKKAR [NP335]
- MIC, Candida albicans NCTC3179 (C. albicans): >2000 µM

Molecule: N=C(N)NCCC[C@H](NC(=O)[C@H](CCCNC(=N)N)NC(=O)[C@H](CCCNC(=N)N)NC(=O)[C@H](CCCNC(=N)N)NC(=O)[C@H](CCCNC(=N)N)NC(=O)[C@H](CCCNC(=N)N)NC(=O)[C@H](CCCNC(=N)N)NC(=O)[C@H](CCCNC(=N)N)NC(=O)[C@H](CCCNC(=N)N)NC(=O)[C@H](CCCNC(=N)N)NC(=O)[C@H](CCCNC(=N)N)NC(=O)[C@H](CCCNC(=N)N)NC(=O)[C@@H](N)CCCNC(=N)N)C(=O)O [NP318]
- MIC, Candida albicans NCTC3179 (C. albicans): 4 µM (≈ 8.19 µg/mL)
- MIC (Malasezzia furfur; [1]): 62.5 µM (≈ 128 µg/mL)
- MIC (Trichophyton rubrum; Trichophyton rubrum strain NCPF118): >2 µM
- MIC (C. parapsilosis; [2]): 256 µM (≈ 524 µg/mL)
- MIC (C. krusei; C. krusei strain ATCC6258): <16 µM
- MIC (C. krusei; C. krusei strain NCPF3953): 8 µM (≈ 16.4 µg/mL)
- MIC, Candida krusei NCPF3953 (C. krusei; [3]): 8 µM (≈ 16.4 µg/mL)

Molecule: RRRWWRRR [NP327]
- MIC, Candida albicans ATCC24433 (C. albicans): 1024 µM
- MIC, Candida albicans ATCC90028 (C. albicans): 512 µM
- MIC, Candida albicans NCTC3179 (C. albicans): 512 µM
- MIC, Candida krusei NCPF3953 (C. krusei): 64 µM

Molecule: RRWRRWRR-OH [NP311]
- MIC, Candida albicans NCTC3179 (C. albicans): >2000 µM

Molecule: RRWWR [NP321, RRWWR]
- MIC, Candida albicans NCTC3179 (C. albicans): >2000 µM

Molecule: KKKKKKKKKKK [NP346]
- MIC (C. albicans): >2048 µM

Molecule: KKKDKVKK [NP334]
- MIC, Candida albicans NCTC3179 (C. albicans): >2000 µM

Molecule: Poly-L-Lysine (MW 0.5-2 kDa) [NP112]
- MIC (Malasezzia furfur; [1]): 512 (μg/ml)

Molecule: CC(C)[C@H](NC(=O)[C@H](CCCNC(=N)N)NC(=O)[C@H](CCCNC(=N)N)NC(=O)[C@H](CCCNC(=N)N)NC(=O)[C@@H](N)CCCNC(=N)N)C(=O)N[C@H](C(=O)N[C@@H](CCCNC(=N)N)C(=O)N[C@@H](CCCNC(=N)N)C(=O)N[C@@H](CCCNC(=N)N)C(=O)N[C@@H](CCCNC(=N)N)C(=O)O)C(C)C [NP310]
- MIC, Candida albicans NCTC3179 (C. albicans): >2000 µM
- MIC (Trichophyton rubrum): >2 µM

Molecule: RRRVVRRR [NP308]
- MIC, Candida albicans NCTC3179 (C. albicans): >2000 µM
- MIC (Trichophyton rubrum): >2 µM

Molecule: N=C(N)NCCC[C@H](NC(=O)[C@H](CCCNC(=N)N)NC(=O)[C@@H](N)CCCNC(=N)N)C(=O)O [NP356, RRR] (H-Arg-Arg-Arg-OH; N-terminus and C-terminus assumed)
- MIC (C. albicans): >2048 µM

Molecule: RRWRWR [NP323, RRWRWR]
- MIC, Candida albicans ATCC24433 (C. albicans): 1024 µM
- MIC, Candida albicans ATCC90028 (C. albicans): 2000 µM
- MIC, Candida albicans NCTC3179 (C. albicans): 1024 µM
- MIC (C. krusei): 256 µM
- MIC, Candida krusei NCPF3953 (C. krusei): 256 µM

Molecule: CC(=O)N[C@@H](CCCNC(=N)N)C(=O)N[C@@H](CCCNC(=N)N)C(=O)N[C@@H](CCCNC(=N)N)C(=O)N[C@@H](CCCNC(=N)N)C(=O)N[C@@H](CCCNC(=N)N)C(=O)N[C@@H](CCCNC(=N)N)C(=O)N[C@@H](CCCNC(=N)N)C(=O)N[C@@H](CCCNC(=N)N)C(=O)N[C@@H](CCCNC(=N)N)C(=O)N[C@@H](CCCNC(=N)N)C(=O)N[C@@H](CCCNC(=N)N)C(=O)N[C@@H](CCCNC(=N)N)C(=O)N[C@@H](CCCNC(=N)N)C(N)=O [NP338]
- MIC, Candida albicans ATCC24433 (C. albicans): 2 µM (≈ 4.18 µg/mL)
- MIC, Candida albicans ATCC90028 (C. albicans): 4 µM (≈ 8.36 µg/mL)
- MIC, Candida albicans NCTC3179 (C. albicans): 2 µM (≈ 4.18 µg/mL)
- MIC (Malasezzia furfur; [1]): <15.6 µM
- MIC (C. tropicalis): 2 µM (≈ 4.18 µg/mL)
- MIC (C. parapsilosis; [2]): 8 µM (≈ 16.7 µg/mL)
- MIC (C. parapsilosis; C. parapsilosis strain ATCC90018): 128 µM (≈ 267 µg/mL)
- MIC (C. krusei; C. krusei strain ATCC6258): 2 µM (≈ 4.18 µg/mL)
- MIC (C. krusei; C. krusei strain NCPF3953): 8 µM (≈ 16.7 µg/mL)
- MIC, Candida krusei NCPF3953 (C. krusei; [3]): 8 µM (≈ 16.7 µg/mL)

Molecule: RRRRR [NP357, RRRRR]
- MIC (C. albicans): >2048 µM

Molecule: RWRWR [NP320, RWRWR]
- MIC, Candida albicans NCTC3179 (C. albicans): >2000 µM

Molecule: PKTKAKAKAKKGKGKD [NP336]
- MIC, Candida albicans NCTC3179 (C. albicans): >2000 µM

Molecule: RRRRWWRRRR [NP329]
- MIC (C. albicans): 1024 µM
- MIC, Candida albicans ATCC24433 (C. albicans): 512 µM
- MIC, Candida albicans NCTC3179 (C. albicans): 256 µM
- MIC (C. krusei): 32 µM
- MIC, Candida krusei NCPF3953 (C. krusei): 32 µM

Molecule: RRWRWRR [NP326, RRWRWRR]
- MIC (C. albicans): 1024 µM
- MIC, Candida albicans ATCC24433 (C. albicans): 1024 µM
- MIC, Candida albicans ATCC90028 (C. albicans): 1024 µM
- MIC, Candida albicans NCTC3179 (C. albicans): 2000 µM
- MIC (C. krusei): 128 µM
- MIC, Candida krusei NCPF3953 (C. krusei): 128 µM

Molecule: RRWRRWRR [NP328]
- MIC, Candida albicans ATCC24433 (C. albicans): 1024 µM
- MIC, Candida albicans ATCC90028 (C. albicans): 1024 µM
- MIC, Candida albicans NCTC3179 (C. albicans): 1024 µM
- MIC (C. krusei): 128 µM
- MIC, Candida krusei NCPF3953 (C. krusei): 128 µM

Molecule: ILRWPWWPWRRK-NH2 [NP354]
- MIC (C. krusei; C. krusei strain NCPF3953): >2048 µM

Molecule: RRVVR [NP302, RRVVR]
- MIC, Candida albicans NCTC3179 (C. albicans): >2000 µM
- MIC (Trichophyton rubrum): >2 µM

Molecule: N=C(N)NCCC[C@H](NC(=O)[C@H](CCCNC(=N)N)NC(=O)[C@H](CCCNC(=N)N)NC(=O)[C@H](CCCNC(=N)N)NC(=O)[C@H](CCCNC(=N)N)NC(=O)[C@H](CCCNC(=N)N)NC(=O)[C@H](CCCNC(=N)N)NC(=O)[C@H](CCCNC(=N)N)NC(=O)[C@H](CCCNC(=N)N)NC(=O)[C@H](CCCNC(=N)N)NC(=O)[C@@H](N)CCCNC(=N)N)C(=O)O [NP317]
- MIC, Candida albicans NCTC3179 (C. albicans): 512 µM (≈ 889 µg/mL)
- MIC (Malasezzia furfur): <15.6 µM
- MIC (Trichophyton rubrum): 0.25 µM (≈ 0.434 µg/mL)
- MIC (C. parapsilosis): 256 µM (≈ 444 µg/mL)
- MIC, Candida krusei NCPF3953 (C. krusei): 32 µM (≈ 55.6 µg/mL)
